According to patent publication US10314883B2, “Compositions and methods for regulating blood pressure” (University of Virginia Patent Foundation, priority 2015, dated 2019):

Experiments:
[1] = system: thoracodorsal arteries (TDA); assay: ATP release from intact TDA (luciferin:luciferase); format: cell-based, mouse; details: for effect on phenylephrine-induced ATP release from intact TDAs: phenylephrine 100 μmol/L, ^10Panx1 300 μmol/L, peptides 3 μmol/L
Description: Mouse TDAs of equal length were isolated and washed thoroughly to eliminate red blood cells. Vessels were placed in a well of a 96-well plate containing Krebs-HEPES solution supplemented with 1% BSA at 37° C. for 30 minutes to allow for degradation of any ATP released as a result of mechanical stimulation during manipulation of the vessel. For measurements performed on HEK cells: 24 hours after transfection, cells cultured in 24-well plates were cautiously washed twice with warm Krebs-HEPES-BSA and 300 μl of Krebs-HEPES-BSA was added to each well after the last wash as previously described. The plate was then kept in the incubator at 37° C. with 5% CO2 for 30 minutes to allow for degradation of ATP eventually released during the washes.
The ectonucleotidase inhibitor ARL67156 (300 μmol/L) was applied to each well. When indicated, ^10Panx1 (300 μmol/L) or the peptides analog to intracellular regions of Panx1 (3 μmol/L) were added along with the ARL67156. After a 30 minute incubation at 37° C. with the inhibitor(s), phenylephrine (100 μmol/L) or equivalent volume of Krebs-HEPES-BSA was added and the plate was kept at 37° C. After five minutes of phenylephrine stimulation, the media surrounding the TDA or the cells was transferred to an Eppendorf tube and centrifuged for five minutes at 5,000×g to eliminate eventual cell debris. Fifty microliters of the supernatant was transferred to a white-wall 96 well plate and placed in a FluoStar Omega luminometer. The ATP concentration was measured by adding 50 μL of luciferin:luciferase reagent (ATP bioluminescence assay kit HSII; Roche), which was injected into each well and the luminescence was immediately recorded. Data are expressed as a percent increase in ATP concentration compared to unstimulated condition. Each stimulated condition was compared to unstimulated condition performed on the same day, and all experiments were performed on at least 15 wells of HEK cells or three TDAs. Data were analyzed using a Kruskall Wallis test (non-parametric one-way ANOVA) followed by Dunn's post-hoc test.
To determine if the TDA response involved release of ATP, we dissected TDAs from C57Bl/6 mice and measured the accumulation of extracellular ATP in response to various agonists in the medium (FIG. 1E, inset). The TDAs were placed in a well of a 96 well plate in Krebs-HEPES solution and treated with the ectonucleotidase inhibitor ARL67156 for 30 minutes. Next, arteries were treated with a contractile agonist for five minutes and the amount of ATP in the media surrounding the vessel was determined using the ATP bioluminescence assay kit HSII (Roche).

[2] = target: T1, Panx1 (Mus musculus, UniProt Q9JIP4); assay: Whole-cell patch clamp of CBX-sensitive Panx1 current in HEK293 cells cotransfected with mPanx1 and α1DAR; format: cell-based; details: phenylephrine 20 μmol/L; for effect on phenylephrine-induced Panx1 current: cells pre-incubated with peptide 40-60 minutes
T1 construct: we progressively substituted amino acids in this region of full-length Panx1 with alanine residues; HA; expressed in transfected cells; host or cells: HEK293T cells, transient co-transfection with alpha1DAR plasmid (Origene, NM_013460, C-terminal Myc-DDK)
T1 sequence (Q9JIP4 whole entry): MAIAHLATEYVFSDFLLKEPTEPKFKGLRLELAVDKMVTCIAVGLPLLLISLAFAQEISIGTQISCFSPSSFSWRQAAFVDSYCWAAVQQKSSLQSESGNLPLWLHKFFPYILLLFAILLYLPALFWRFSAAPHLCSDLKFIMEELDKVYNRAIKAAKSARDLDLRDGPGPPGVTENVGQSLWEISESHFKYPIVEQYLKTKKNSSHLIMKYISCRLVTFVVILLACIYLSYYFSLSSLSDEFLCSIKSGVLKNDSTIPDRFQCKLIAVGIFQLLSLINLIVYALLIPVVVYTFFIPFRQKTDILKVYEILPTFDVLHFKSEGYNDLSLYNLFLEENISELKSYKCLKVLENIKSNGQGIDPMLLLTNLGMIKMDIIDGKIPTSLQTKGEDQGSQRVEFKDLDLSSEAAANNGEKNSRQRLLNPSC
Description: Human Embryonic Kidney (HEK) 293T cells were cultured as previously described, and were used until passage 20. For ATP measurements, 50,000 cells/well were seeded in 24 well plates pre-coated with 0.01% poly-L-lysine, and transfected using Lipofectamine 2000 (Invitrogen) according to the manufacturer protocol. Briefly, 0.4 μg of α1DAR and 0.4 μg of Panx1^WT, Panx1^KYP>AAA, Panx1^IVEQ>AAA or Panx1^YLK>AAA plasmids were added to each well along with 2 μl of Lipofectamine 2000. For electrophysiology measurements, 4 μg of α1DAR plasmid, 2 μg of Panx1^WT, Panx1^KYP>AAA, Panx1^IVEQ>AAA or Panx1^YLK>AAA plasmids, and 0.5 μg of GFP plasmid were mixed with 10 μl Lipofectamine 2000 and added to a well of 6-well plate seeded with ˜70% confluent HEK cells. Cells were split the next morning and plated onto a glass coverslip for recording. ATP measurements and whole-cell recordings were performed 24 hours after transfection.
Whole-cell recordings were obtained at room temperature from transiently transfected HEK293T cells using Axopatch 200B amplifier (Molecular Devices) in a bath solution composed of 140 mmol/L NaCl, 3 mmol/L KCl, 2 mmol/L MgCl2, 2 mmol/L CaCl2, 10 mmol/L HEPES and 10 mmol/L glucose (pH 7.3). Patch pipettes (3-5 MΩ) were filled with a Cs-/TEA-based internal solution, as previously described. Ramp voltage commands with 7-s intervals were applied using pCLAMP software and Digidata1322A digitizer (Molecular Devices). Peak whole-cell currents were determined at +80 mV and normalized to cell capacitance. Current mediated by Panx1 was defined by its sensitivity to carbenoxolone (CBX). In this system, no CBX-sensitive current is observed in HEK293T cells without Panx1. Basal current was recorded for approximately two minutes and PE (20 μmol/L) was applied to the bath solution, which was followed by addition of CBX (50 μmol/L). When indicated, cells were pre-incubated with bath solution containing IL2 peptide or its scrambled version at room temperature for 40-60 minutes prior to the experiment. The effect of PE on Panx1 current was quantified relative to CBX-sensitive basal current, and data was expressed as percent increase in CBX-sensitive current. All experiments were performed on 8 to 22 cells for each conditions tested. Data were analyzed using a Kruskall Wallis test (non-parametric one-way ANOVA) followed by Dunn's post-hoc test.
To test if α1AR stimulation triggered opening of the Panx1 channel and the importance of the region represented by the IL2 peptide, we cotransfected mPanx1 and α1DAR into HEK293 cells and monitored whole-cell currents by patch clamp electrophysiology.

| Molecule | ATP release from intact TDAs in response to agonist ([1]; five minutes of agonist, ARL67156 300 μmol/L) | effect of agonist on Panx1 whole-cell current ([2]; cells expressing both mPanx1 and α1DAR) | effect on phenylephrine-induced ATP release from intact TDAs [1] | effect on phenylephrine-induced Panx1 current [2] |
| --- | --- | --- | --- | --- |
| CNC[C@H](O)c1cccc(O)c1 [Phenylephrine, phenylephrine] | stimulated ATP release | increased this current | – | – |
| KYPIVEQYLKYGRKKQRRR [IL2] | – | – | significantly decreased | significantly decreased |
| scrambled intracellular loop 2 IYLYVEQKPY (SEQ ID NO: 7) linked with a TAT sequence [Scrambled IL2] | – | – | no effect | no effect |
